Drawing on patent publication US20230181536A1, “ANTICANCER COMBINATION THERAPY WITH N-(1-ACRYLOYL-AZETIDIN-3-YL)-2-((1H-INDAZOL-3-YL)AMINO)METHYL)-1H-IMIDAZOLE-5-CARBOXAMIDE INHIBITOR OF KRAS-G12C” (TAIHO PHARMACEUTICAL CO., LTD., priority 2020, published 2023), this text covers IC50 for 20 molecules.

In this test the target is T1, KRAS G12C (Homo sapiens, UniProt P01116, G12C).
T1 construct: KRAS G12C (amino acid region: 1-169)
Description: Inhibitory activity on the KRAS G12C nucleotide (GDP-GTP) exchange reaction. The format is biochemical. The following applies: Bodipy FL GDP-bound KRAS G12C 25 nM; preincubation at 25° C. for 4 hours; SOS1 100 nM, GppNHp 1 μM, reaction for 30 minutes. How it is done:
Test Example 2: Evaluation of Inhibitory Activity of Compounds on the KRAS G12C Nucleotide (GDP-GTP) Exchange Reaction
The inhibitory activity of compounds on the exchange reaction of GDP into GppNHp in Bodipy (trademark) FL-bound KRAS G12C was examined by fluorescence measurement using human recombinant KRAS G12C and SOS1 proteins.
For the preparation of KRAS G12C to which Bodipy FL GDP was bound, first, 50 µM KRAS G12C (amino acid region: 1-169) and 1 mM Bodipy FL GDP (Invitrogen, G22360) were incubated for 1 hour in a buffer (20 mM Tris-HCl (pH 7.5), 50 mM NaCl, 1 mM DTT) in ice in the presence of 2.5 mM EDTA. Thereafter, MgCl2 with a final concentration of 10 mM was added, and the mixture was incubated at room temperature for 30 minutes. The protein was allowed to pass through a NAP-5 column to remove free nucleotides and was used for compound evaluation.
For the measurement of the inhibitory activity of compounds on nucleotide exchange reaction, first, the compound of the disclosure was diluted stepwise with dimethyl sulfoxide (DMSO). Subsequently, a solution of the gradually diluted compound of the disclosure in DMSO (the final concentration of DMSO: 5%) and KRAS G12C (25 nM) bound to Bodipy FL GDP were added to a reaction buffer (20 mM Tris-HCl (pH 7.5), 100 mM NaCl, 1 mM MgCl2, 2 mM DTT, 0.1% Tween20), followed by preincubation at 25° C. for 4 hours. Thereafter, Son of Sevenless Homolog 1 (SOS1, amino acid region: 564-1049) and GppNHp (GMPPNP, Jena Bioscience GmbH, NU-401-50) were added such that their final concentration was 100 nM and 1 μM respectively, followed by reaction for 30 minutes. The change in fluorescence intensity of Bodipy FL (excitation wavelength: 485 nm, fluorescence wavelength: 520 nm) immediately after the start of reaction and after 30 minutes from the start of reaction was standardized. The signal value for only DMSO was determined to be 0% inhibition, and the signal value for no addition of GppNHp was determined to be 100% inhibition. The compound concentration at which 50% inhibition is achieved was determined to be the IC50 (nM) and was calculated.

T1 sequence (P01116 1-169 isoform P01116-2 G12C): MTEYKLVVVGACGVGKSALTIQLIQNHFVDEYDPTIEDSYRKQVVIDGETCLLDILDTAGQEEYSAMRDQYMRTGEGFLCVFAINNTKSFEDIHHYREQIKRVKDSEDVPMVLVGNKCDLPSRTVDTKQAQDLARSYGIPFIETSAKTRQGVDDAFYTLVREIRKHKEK

As usually defined, the IC50 is the concentration needed to halve the response being measured. In turn, `C=CC(=O)N1CC(NC(=O)c2c(C)nc(CNc3n[nH]c4cc(Cl)c(C(C)(C)C)cc34)n2CC(F)(F)F)C1` [Example 22, N-(1-acryloylazetidin-3-yl)-2-(((5-(tert-butyl)-6-chloro-1H-indazol-3-yl)amino)methyl)-4-methyl-1-(2,2,2-trifluoroethyl)-1H-imidazole-5-carboxamide] displayed an IC50 of 55 nM.

`C=CC(=O)N1CC(NC(=O)c2c(C)nc(CNc3n[nH]c4cc(Cl)c(C(C)(C)C)cc34)n2C2CC2)C1` [Example 23, N-(1-acryloylazetidin-3-yl)-2-(((5-(tert-butyl)-6-chloro-1H-indazol-3-yl)amino)methyl)-1-cyclopropyl-4-methyl-1H-imidazole-5-carboxamide] had an IC50 of 7 nM.

As to `C=CC(=O)N1CC(NC(=O)c2c(C)nc(CNc3n[nH]c4cc(Cl)c(C(C)(C)C)cc34)n2C(C)(C)C)C1` [Example 24, N-(1-acryloylazetidin-3-yl)-1-(tert-butyl)-2-(((5-(tert-butyl)-6-chloro-1H-indazol-3-yl)amino)methyl)-4-methyl-1H-imidazole-5-carboxamide], half-maximal inhibition (IC50) required 35 nM.

`C=CC(=O)N1CC(NC(=O)c2c(C(F)(F)F)nc(CNc3n[nH]c4cc(Cl)c(C(C)(C)C)cc34)n2C)C1` [Example 25, N-(1-acryloylazetidin-3-yl)-2-(((5-(tert-butyl)-6-chloro-1H-indazol-3-yl)amino)methyl)-1-methyl-4-(trifluoromethyl)-1H-imidazole-5-carboxamide] returned an IC50 of 163 nM.

Take `C=CC(=O)N1CC(NC(=O)c2c(I)nc(CNc3n[nH]c4cc(Cl)c(C(C)(C)C)cc34)n2C)C1` [Example 26, N-(1-acryloylazetidin-3-yl)-2-(((5-(tert-butyl)-6-chloro-1H-indazol-3-yl)amino)methyl)-4-iodo-1-methyl-1H-imidazole-5-carboxamide]: it took 69 nM to reach half-maximal inhibition (IC50).

In turn, `C=CC(=O)N1CC(NC(=O)c2c(Br)nc(CNc3n[nH]c4cc(Cl)c(C(C)(C)C)cc34)n2C)C1` [Example 27, N-(1-acryloylazetidin-3-yl)-4-bromo-2-(((5-(tert-butyl)-6-chloro-1H-indazol-3-yl)amino)methyl)-1-methyl-1H-imidazole-5-carboxamide] came in with an IC50 of 8 nM.

The molecule `C=CC(=O)N1CC(NC(=O)c2c(C#N)nc(CNc3n[nH]c4cc(Cl)c(C(C)(C)C)cc34)n2C)C1` [Example 28, N-(1-acryloylazetidin-3-yl)-2-(((5-(tert-butyl)-6-chloro-1H-indazol-3-yl)amino)methyl)-4-cyano-1-methyl-1H-imidazole-5-carboxamide] showed an IC50 of 70 nM.

Consider `C=CC(=O)N1CC(NC(=O)c2c(Cl)nc(CNc3n[nH]c4cc(Cl)c(C(C)(C)C)cc34)n2C)C1` [Example 29, N-(1-acryloylazetidin-3-yl)-2-(((5-(tert-butyl)-6-chloro-1H-indazol-3-yl)amino)methyl)-4-chloro-1-methyl-1H-imidazole-5-carboxamide], for which the concentration for half-maximal inhibition (IC50) came out at 6 nM.

`C=CC(=O)N1CC(NC(=O)c2c(F)nc(CNc3n[nH]c4cc(Cl)c(C(C)(C)C)cc34)n2C)C1` [Example 30, N-(1-acryloylazetidin-3-yl)-2-(((5-(tert-butyl)-6-chloro-1H-indazol-3-yl)amino)methyl)-4-fluoro-1-methyl-1H-imidazole-5-carboxamide]: 11 nM corresponded to half-maximal inhibition (IC50).

Regarding `C=CC(=O)N1CC(NC(=O)c2c(CC)nc(CNc3n[nH]c4cc(Cl)c(C(C)(C)C)cc34)n2C)C1` [Example 31, N-(1-acryloylazetidin-3-yl)-2-(((5-(tert-butyl)-6-chloro-1H-indazol-3-yl)amino)methyl)-4-ethyl-1-methyl-1H-imidazole-5-carboxamide], the midpoint of inhibition, the IC50, lay at 642 nM.

Take `C=CC(=O)N1CC(NC(=O)c2c(C(F)(F)F)nc(CNc3n[nH]c4cc(Cl)c(C(C)(C)C)cc34)n2C(C)C)C1` [Example 32, N-(1-acryloylazetidin-3-yl)-2-(((5-(tert-butyl)-6-chloro-1H-indazol-3-yl)amino)methyl)-1-isopropyl-4-(trifluoromethyl)-1H-imidazole-5-carboxamide]: inhibition was half-maximal at 50 nM (IC50).

Molecule `C=CC(=O)N1CC(NC(=O)c2c(C(F)F)nc(CNc3n[nH]c4cc(Cl)c(C(C)(C)C)cc34)n2C(C)C)C1` [Example 33, N-(1-acryloylazetidin-3-yl)-2-(((5-(tert-butyl)-6-chloro-1H-indazol-3-yl)amino)methyl)-4-(difluoromethyl)-1-isopropyl-1H-imidazole-5-carboxamide] yielded an IC50 of 13 nM.

In turn, `C=CC(=O)N1CC(NC(=O)c2c(F)nc(CNc3n[nH]c4cc(Cl)c(C(C)(C)C)cc34)n2C(C)C)C1` [Example 34, N-(1-acryloylazetidin-3-yl)-2-(((5-(tert-butyl)-6-chloro-1H-indazol-3-yl)amino)methyl)-4-fluoro-1-isopropyl-1H-imidazole-5-carboxamide] yielded a half-inhibitory concentration (IC50) of 13 nM.

In turn, `C=CC(=O)N1CC(NC(=O)c2c(Cl)nc(CNc3n[nH]c4cc(Cl)c(C(C)(C)C)cc34)n2C(C)C)C1` [Example 35, N-(1-acryloylazetidin-3-yl)-2-(((5-(tert-butyl)-6-chloro-1H-indazol-3-yl)amino)methyl)-4-chloro-1-isopropyl-1H-imidazole-5-carboxamide] gave an IC50 of 8 nM.

On to `[2H]C([2H])(Nc1n[nH]c2cc(Cl)c(C(C)(C)C)cc12)c1nc(C(F)F)c(C(=O)NC2CN(C(=O)C=C)C2)n1C(C)C` [Example 36, N-(1-acryloylazetidin-3-yl)-2-(((5-(tert-butyl)-6-chloro-1H-indazol-3-yl)amino)methyl-d2)-4-(difluoromethyl)-1-isopropyl-1H-imidazole-5-carboxamide], for which the IC50 came out at 19 nM.

For `C=CC(=O)N1CC(NC(=O)c2cnc(CNc3n[nH]c4cc(Cl)c(C)cc34)n2C)C1` [Example 37, N-(1-acryloylazetidin-3-yl)-2-(((6-chloro-5-methyl-1H-indazol-3-yl)amino)methyl)-1-methyl-1H-imidazole-5-carboxamide], the IC50 came out at 5480 nM.

The molecule `C=CC(=O)N1CC(NC(=O)c2cnc(CNc3n[nH]c4cc(Cl)c(C=C)cc34)n2C)C1` [Example 38, N-(1-acryloylazetidin-3-yl)-2-(((6-chloro-5-vinyl 1H-indazol-3-yl)amino)methyl)-1-methyl-1H-imidazole-5-carboxamide] returned an IC50 of 2170 nM.

`C=CC(=O)N1CC(NC(=O)c2cnc(CNc3n[nH]c4cc(Cl)c(CC)cc34)n2C)C1` [Example 39, N-(1-acryloylazetidin-3-yl)-2-(((6-chloro-5-ethyl-1H-indazol-3-yl)amino)methyl)-1-methyl-1H-imidazole-5-carboxamide] displayed a 50% inhibitory concentration (IC50) of 870 nM.

For the molecule `C=CC(=O)N1CC(NC(=O)c2cnc(CNc3n[nH]c4cc(Cl)c(C(C)(C)C)nc34)n2C)C1` [Example 40, N-(1-acryloylazetidin-3-yl)-2-(((5-(tert-butyl)-6-chloro-1H-pyrazolo[4,3-b]pyridin-3-yl)amino)methyl)-1-methyl-1H-imidazole-5-carboxamide], the half-maximal inhibitory concentration (IC50) turned out to be 27 nM.

Consider `C=CC(=O)N1CC(NC(=O)c2c(C)nc(CNc3n[nH]c4cc(C)c(C(C)(C)C)cc34)n2C)C1` [Example 41, N-(1-acryloylazetidin-3-yl)-2-(((5-(tert-butyl)-6-methyl-1H-indazol-3-yl)amino)methyl)-1,4-dimethyl-1H-imidazole-5-carboxamide], for which the IC50 is 14 nM.
